# Measured values published in patent US20260373497A1, “MOLECULAR MACHINES STIMULATE INTERCELLULAR CALCIUM WAVES AND CAUSE MUSCLE CONTRACTION” (William Marsh Rice University, priority 2022, published 2026).
# Entries after “also recorded” stand apart in the source; their conditions may differ.
# How the values were obtained:
# [1] = system: N2A cells; assay: MM-induced calcium responses in N2A cells; assay type: cell-based; settings: 400 nm, 250 ms, 3.2×10^2 W cm^−2
# Source text: FIGS. 11A & 11B—ICW in N2A cells after stimulation with MM 1 and light. (a) Confocal images of N2A cells treated with MM 1 (blue) and calcium tracking dye (Fluo-4; green). The white circle in the top-left image depicts the area to which stimulus was delivered. The scale bar is 50 μm and applies to all images. (b) Fluo-4 fluorescence traces of N2A cells treated with MM 1 and stimulated with 250 ms pulse of 400 nm light delivered to a 5 μm diameter circular region of interest at 3.2×10^2 W cm^−2 stimulation power.
# Cell Culture and Preparation of Cells for Microscopy: HEK293 cells were chosen as the principal model system due to their prevalence in electrophysiological interrogation. […] HEK293 cells, HeLa cells, and N2A cells were cultured in DMEM (10% FBS, 1% penicillin/streptomycin) and passaged at <90% confluence. […]
# In Vitro Imaging and Stimulation: Cells were loaded in a Nikon A1-Rsi confocal system mounted on a widefield Ti-E fluorescence microscope. […] Laser stimulation for in vitro experiments was performed with a 400 nm photodiode laser (Coherent OBIS™ LX SF) operating in a fluorescence-recovery-after-photobleaching (FRAP) experiment mode, delivering up to 6.4×10^2 W cm^−2 at sample level. […] Fluo-4 fluorescence was collected for 30 s before and 2 min after stimulation. […]
# [2] = system: primary rat cardiomyocytes; assay: Spiking, beating and contraction of primary cardiomyocytes after MM stimulation; assay type: cell-based
smiles,measurement,setting,value
CC1Cc2ccc3ccccc3c2C1=C1c2ccccc2Sc2cc(NCCN(C)C)ccc21 (centres unmarked) [MM 1],Calcium responses induced by MM 1 actuation,[1],also observed
same,Contraction / beating of cardiomyocytes,"[2]; 400 nm, 250 ms, 5.1×10^2 W cm^−2",local contraction in the stimulated cell; also recorded: periodic beating in the stimulated cell and surrounding cell
same,Firing rate of cardiomyocytes,"[2]; MM 1 + light in presence of U-73 10 μM, P<0.0001",~ 0.8 spikes min^−1 cell^−1
same,Spiking activity of cardiomyocytes,"[2]; MM 1 + light, absence of extracellular calcium",did not exhibit any spiking activity
same,Firing rate of cardiomyocytes,"[2]; MM 1 + light, calcium-containing medium",5.1 spikes min^−1 cell^−1
